# Results as given in ChEMBL document CHEMBL1275409, “Antimicrobial-resistant pathogens in intensive care units in Canada: results of the Canadian National Intensive Care Unit (CAN-ICU) study, 2005-2006” (2008).
# Tests used:
# Assay type in all cases: functional
# [1] = tested on: Staphylococcus epidermidis; assay: Antimicrobial activity against methicillin-susceptible Staphylococcus epidermidis isolated from ICU patient blood assessed as resistant isolates by broth microdilution method in presence of beta-lactamase inhibitor Tazobactam
# Haemophilus influenzae [2] = assay: Antimicrobial activity against Haemophilus influenzae isolated from ICU patient blood assessed as resistant isolates by broth microdilution method in presence of beta-lactamase inhibitor Tazobactam
# Enterobacter cloacae [3] = assay: Antimicrobial activity against carbapenem-resistant Enterobacter cloacae assessed as resistant isolates by broth microdilution method in presence of beta-lactamase inhibitor Tazobactam
# Pseudomonas aeruginosa [4] = assay: Antimicrobial activity against carbapenem-resistant Pseudomonas aeruginosa isolated from ICU patient respiratory tract assessed as resistant isolates by broth microdilution method in presence of beta-lactamase inhibitor Tazobactam
# Staphylococcus aureus [5] = assay: Antimicrobial activity against methicillin-resistant Staphylococcus aureus isolated from ICU patient blood assessed as resistant isolates by broth microdilution method in presence of beta-lactamase inhibitor Tazobactam
# Enterococcus sp. [6] = assay: Antimicrobial activity against vancomycin-resistant Enterococcus sp. isolated from ICU patient wound assessed as resistant isolates by broth microdilution method in presence of beta-lactamase inhibitor Tazobactam
# [7] = tested on: Staphylococcus epidermidis; assay: Antimicrobial activity against methicillin-resistant Staphylococcus epidermidis assessed as resistant isolates by broth microdilution method in presence of beta-lactamase inhibitor Tazobactam
# Enterococcus sp. [8] = assay: Antimicrobial activity against vancomycin-resistant Enterococcus sp. isolated from ICU patient respiratory tract assessed as resistant isolates by broth microdilution method
# Klebsiella pneumoniae [9] = assay: Antimicrobial activity against ESBL producing Klebsiella pneumoniae assessed as resistant isolates by broth microdilution method in presence of beta-lactamase inhibitor Tazobactam
# Enterococcus sp. [10] = assay: Antimicrobial activity against vancomycin-resistant Enterococcus sp. isolated from ICU patient respiratory tract assessed as resistant isolates by broth microdilution method in presence of beta-lactamase inhibitor Tazobactam
# Escherichia coli [11] = assay: Antimicrobial activity against CTX-M ESBL producing Escherichia coli isolated from ICU patient blood assessed as resistant isolates by broth microdilution method in presence of beta-lactamase inhibitor Tazobactam
# Escherichia coli [12] = assay: Antimicrobial activity against CTX-M ESBL producing Escherichia coli assessed as resistant isolates by broth microdilution method in presence of beta-lactamase inhibitor Tazobactam
# Enterobacter cloacae [13] = assay: Antimicrobial activity against carbapenem-resistant Enterobacter cloacae isolated from ICU patient urine assessed as resistant isolates by broth microdilution method in presence of beta-lactamase inhibitor Tazobactam
# Escherichia coli [14] = assay: Antimicrobial activity against CTX-M ESBL producing Escherichia coli isolated from ICU patient urine assessed as resistant isolates by broth microdilution method in presence of beta-lactamase inhibitor Tazobactam
# Pseudomonas aeruginosa [15] = assay: Antimicrobial activity against carbapenem-resistant Pseudomonas aeruginosa isolated from ICU patient blood assessed as resistant isolates by broth microdilution method in presence of beta-lactamase inhibitor Tazobactam
# Enterococcus sp. [16] = assay: Antimicrobial activity against vancomycin-resistant Enterococcus sp. assessed as resistant isolates by broth microdilution method in presence of beta-lactamase inhibitor Tazobactam
# Staphylococcus aureus [17] = assay: Antimicrobial activity against methicillin-susceptible Staphylococcus aureus assessed as resistant isolates by broth microdilution method in presence of beta-lactamase inhibitor Tazobactam
# Enterobacter cloacae [18] = assay: Antimicrobial activity against carbapenem-resistant Enterobacter cloacae isolated from ICU patient respiratory tract assessed as resistant isolates by broth microdilution method in presence of beta-lactamase inhibitor Tazobactam
# Enterococcus sp. [19] = assay: Antimicrobial activity against vancomycin-resistant Enterococcus sp. isolated from ICU patient urine assessed as resistant isolates by broth microdilution method in presence of beta-lactamase inhibitor Tazobactam
# Haemophilus influenzae [20] = assay: Antimicrobial activity against Haemophilus influenzae assessed as resistant isolates by broth microdilution method in presence of beta-lactamase inhibitor Tazobactam
# [21] = tested on: Staphylococcus epidermidis; assay: Antimicrobial activity against methicillin-resistant Staphylococcus epidermidis isolated from ICU patient blood assessed as resistant isolates by broth microdilution method in presence of beta-lactamase inhibitor Tazobactam
# Klebsiella pneumoniae [22] = assay: Antimicrobial activity against ESBL producing Klebsiella pneumoniae isolated from ICU patient blood assessed as resistant isolates by broth microdilution method in presence of beta-lactamase inhibitor Tazobactam
# Staphylococcus aureus [23] = assay: Antimicrobial activity against methicillin-susceptible Staphylococcus aureus isolated from ICU patient respiratory tract assessed as resistant isolates by broth microdilution method in presence of beta-lactamase inhibitor Tazobactam
# Escherichia coli [24] = assay: Antimicrobial activity against CTX-M ESBL producing Escherichia coli isolated from ICU patient respiratory tract assessed as resistant isolates by broth microdilution method in presence of beta-lactamase inhibitor Tazobactam
# [25] = tested on: Staphylococcus epidermidis; assay: Antimicrobial activity against methicillin-susceptible Staphylococcus epidermidis isolated from ICU patient respiratory tract assessed as resistant isolates by broth microdilution method in presence of beta-lactamase inhibitor Tazobactam
# Enterococcus sp. [26] = assay: Antimicrobial activity against vancomycin-resistant Enterococcus sp. isolated from ICU patient blood assessed as resistant isolates by broth microdilution method in presence of beta-lactamase inhibitor Tazobactam
# Klebsiella pneumoniae [27] = assay: Antimicrobial activity against ESBL producing Klebsiella pneumoniae isolated from ICU patient urine assessed as resistant isolates by broth microdilution method in presence of beta-lactamase inhibitor Tazobactam
# [28] = tested on: Staphylococcus epidermidis; assay: Antimicrobial activity against methicillin-susceptible Staphylococcus epidermidis isolated from ICU patient wound assessed as resistant isolates by broth microdilution method in presence of beta-lactamase inhibitor Tazobactam
# [29] = tested on: Staphylococcus epidermidis; assay: Antimicrobial activity against methicillin-resistant Staphylococcus epidermidis isolated from ICU patient wound assessed as resistant isolates by broth microdilution method in presence of beta-lactamase inhibitor Tazobactam
# Haemophilus influenzae [30] = assay: Antimicrobial activity against Haemophilus influenzae isolated from ICU patient wound assessed as resistant isolates by broth microdilution method in presence of beta-lactamase inhibitor Tazobactam
# [31] = tested on: Staphylococcus epidermidis; assay: Antimicrobial activity against methicillin-susceptible Staphylococcus epidermidis isolated from ICU patient urine assessed as resistant isolates by broth microdilution method in presence of beta-lactamase inhibitor Tazobactam
# Escherichia coli [32] = assay: Antimicrobial activity against CTX-M ESBL producing Escherichia coli isolated from ICU patient wound assessed as resistant isolates by broth microdilution method in presence of beta-lactamase inhibitor Tazobactam
# Pseudomonas aeruginosa [33] = assay: Antimicrobial activity against carbapenem-resistant Pseudomonas aeruginosa isolated from ICU patient wound assessed as resistant isolates by broth microdilution method in presence of beta-lactamase inhibitor Tazobactam
# Haemophilus influenzae [34] = assay: Antimicrobial activity against Haemophilus influenzae isolated from ICU patient respiratory tract assessed as resistant isolates by broth microdilution method in presence of beta-lactamase inhibitor Tazobactam
# Staphylococcus aureus [35] = assay: Antimicrobial activity against methicillin-resistant Staphylococcus aureus isolated from ICU patient urine assessed as resistant isolates by broth microdilution method in presence of beta-lactamase inhibitor Tazobactam
# Staphylococcus aureus [36] = assay: Antimicrobial activity against methicillin-susceptible Staphylococcus aureus isolated from ICU patient wound assessed as resistant isolates by broth microdilution method in presence of beta-lactamase inhibitor Tazobactam
# Pseudomonas aeruginosa [37] = assay: Antimicrobial activity against carbapenem-resistant Pseudomonas aeruginosa isolated from ICU patient urine assessed as resistant isolates by broth microdilution method in presence of beta-lactamase inhibitor Tazobactam
# Staphylococcus aureus [38] = assay: Antimicrobial activity against methicillin-susceptible Staphylococcus aureus isolated from ICU patient urine assessed as resistant isolates by broth microdilution method in presence of beta-lactamase inhibitor Tazobactam
# Enterobacter cloacae [39] = assay: Antimicrobial activity against carbapenem-resistant Enterobacter cloacae isolated from ICU patient blood assessed as resistant isolates by broth microdilution method in presence of beta-lactamase inhibitor Tazobactam
# Klebsiella pneumoniae [40] = assay: Antimicrobial activity against ESBL producing Klebsiella pneumoniae isolated from ICU patient wound assessed as resistant isolates by broth microdilution method in presence of beta-lactamase inhibitor Tazobactam
# Staphylococcus aureus [41] = assay: Antimicrobial activity against methicillin-resistant Staphylococcus aureus isolated from ICU patient wound assessed as resistant isolates by broth microdilution method in presence of beta-lactamase inhibitor Tazobactam
# Klebsiella pneumoniae [42] = assay: Antimicrobial activity against ESBL producing Klebsiella pneumoniae isolated from ICU patient respiratory tract assessed as resistant isolates by broth microdilution method in presence of beta-lactamase inhibitor Tazobactam
# [43] = tested on: Staphylococcus epidermidis; assay: Antimicrobial activity against methicillin-susceptible Staphylococcus epidermidis assessed as resistant isolates by broth microdilution method in presence of beta-lactamase inhibitor Tazobactam
# Staphylococcus aureus [44] = assay: Antimicrobial activity against methicillin-resistant Staphylococcus aureus isolated from ICU patient respiratory tract assessed as resistant isolates by broth microdilution method in presence of beta-lactamase inhibitor Tazobactam
# Staphylococcus aureus [45] = assay: Antimicrobial activity against methicillin-resistant Staphylococcus aureus assessed as resistant isolates by broth microdilution method in presence of beta-lactamase inhibitor Tazobactam
# Staphylococcus aureus [46] = assay: Antimicrobial activity against methicillin-susceptible Staphylococcus aureus isolated from ICU patient blood assessed as resistant isolates by broth microdilution method in presence of beta-lactamase inhibitor Tazobactam
# Enterobacter cloacae [47] = assay: Antimicrobial activity against carbapenem-resistant Enterobacter cloacae isolated from ICU patient wound assessed as resistant isolates by broth microdilution method in presence of beta-lactamase inhibitor Tazobactam
# Pseudomonas aeruginosa [48] = assay: Antimicrobial activity against carbapenem-resistant Pseudomonas aeruginosa assessed as resistant isolates by broth microdilution method in presence of beta-lactamase inhibitor Tazobactam
# [49] = tested on: Staphylococcus epidermidis; assay: Antimicrobial activity against methicillin-resistant Staphylococcus epidermidis isolated from ICU patient urine assessed as resistant isolates by broth microdilution method in presence of beta-lactamase inhibitor Tazobactam
smiles,measurement,setting,value
CCN1CCN(C(=O)N[C@@H](C(=O)N[C@@H]2C(=O)N3[C@@H]2SC(C)(C)[C@@H]3C(=O)O)c2ccccc2)C(=O)C1=O [PIPERACILLIN],Activity,[1],0%
same,Activity,Haemophilus influenzae [2],0%
same,Activity,Enterobacter cloacae [3],4.9%
same,Activity,Pseudomonas aeruginosa [4],2.5%
same,Activity,Staphylococcus aureus [5],100%
same,Activity,Enterococcus sp. [6],22.2%
same,Activity,[7],100%
same,Activity,Enterococcus sp. [8],0%
same,Activity,Klebsiella pneumoniae [9],9.3%
same,Activity,Enterococcus sp. [10],13.3%
same,Activity,Escherichia coli [11],6.9%
same,Activity,Escherichia coli [12],1.9%
same,Activity,Enterobacter cloacae [13],12.5%
same,Activity,Escherichia coli [14],1.1%
same,Activity,Pseudomonas aeruginosa [15],0%
same,Activity,Enterococcus sp. [16],21.1%
same,Activity,Staphylococcus aureus [17],0%
same,Activity,Enterobacter cloacae [18],4.6%
same,Activity,Enterococcus sp. [19],17.3%
same,Activity,Haemophilus influenzae [20],0.3%
same,Activity,[21],100%
same,Activity,Klebsiella pneumoniae [22],6.1%
same,Activity,Staphylococcus aureus [23],0%
same,Activity,Escherichia coli [24],1.6%
same,Activity,[25],0%
same,Activity,Enterococcus sp. [26],27%
same,Activity,Klebsiella pneumoniae [27],13.3%
same,Activity,[28],4.2%
same,Activity,[29],100%
same,Activity,Haemophilus influenzae [30],0%
same,Activity,[31],0%
same,Activity,Escherichia coli [32],0%
same,Activity,Pseudomonas aeruginosa [33],0%
same,Activity,Haemophilus influenzae [34],0.3%
same,Activity,Staphylococcus aureus [35],100%
same,Activity,Staphylococcus aureus [36],0%
same,Activity,Pseudomonas aeruginosa [37],0%
same,Activity,Staphylococcus aureus [38],0%
same,Activity,Enterobacter cloacae [39],4.2%
same,Activity,Klebsiella pneumoniae [40],18.9%
same,Activity,Staphylococcus aureus [41],100%
same,Activity,Klebsiella pneumoniae [42],7.3%
same,Activity,[43],1.2%
same,Activity,Staphylococcus aureus [44],100%
same,Activity,Staphylococcus aureus [45],100%
same,Activity,Staphylococcus aureus [46],0%
same,Activity,Enterobacter cloacae [47],0%
same,Activity,Pseudomonas aeruginosa [48],1.3%
same,Activity,[49],100%
